Test results: patent publication US11918548B2, “Treatment of avascular or hypovascular micro-tumors” (Katholieke Universiteit Leuven, priority 2017, dated 2024)
Where “and” joins values, the source holds several entries; their conditions need not be identical. Identical values can stand only once.

Experiments:
[1] = system: primary hepatocellular carcinomas (HCCs); assay: CA4P-induced tumoral necrosis in DENA-induced primary HCCs on cirrhotic liver (histopathology, microangiography); type: in vivo, rat
Protocol: (§1) Tumor growth was monitored weekly by MRI from the 9th week after DENA administration until the largest tumor lesion attained more than 1 mm in diameter. All recruited tumor-carrying rats received single intravenous injection of CA4P at 10 mg/kg. T2WI, T1WI, DWI and CE-T1WI were performed 4 h before and 12 h after CA4P therapy. Rats were euthanized after the last time point of MRI for postmortem microangiography and histopathology.
After the last MRI scanning, rats were anesthetized by an intraperitoneal injection of pentobarbital at 50 mg/kg. Then laparotomy was performed with blood collected via postcava and abdominal aorta cannulated, through which barium suspension was injected before the entire tumor-bearing liver was excised. With a digital mammography unit (Em-brace; Agfa-Gevaert, Mortsel, Belgium), postmortem hepatic arteriography was made at 26 kV, 32 mAs to document changes in tumor vascularity. The livers were then fixed and sliced into 3-mm sections in the axial plane corresponding to the MR images, and these sections were radiographed at 26 kV, 18 mAs for qualitative analysis.
(§2) After microangiography, the tumor sections were paraffin imbedded, sliced into 5 μm thickness and stained with hematoxylin and eosin (H&E) for microscopic analysis using an Axiovert 200M microscope equipped with an AxioCam MR monochrome digital camera (Carl Zeiss Inc, Gottingen, Germany) and by AxioVision 4.8 software.
Due to the high analogy to the histopathological progression observed in human liver cancer, rat primary HCCs were diagnosed according to the classical histomorphologic features: malignant hepatocytic tumors, often well vascularized, with wide trabeculae (>3 cell layers), noticeable acinar pattern, small cell changes, cytologic atypia, prominent nucleoli, mitotic activity, vascular invasion, absence of Kupffer cells and the loss of the reticulin network. The differentiation of rat HCCs was further classified into Grade I-IV using a modified 4-scale Edmondson and Steiner system [Schlageter et al. cited above].
Digital images of tumor slices at a magnification of 12.5 were used to estimate the percentage of tumor necrosis by ImageJ software [Buijs et al. (2011) J Vasc Intery Radiol 22, 1175-1180]. Briefly, regions of interest were delineated around the entire tumor and the necrotic tumor, respectively, to get ‘necrotic ratio on each section’. For each tumor section, the axial slide representing this tumor block was selected as ‘section area’. Tumor necrosis on each H&E stained slice was estimated independently by 2 pathologists, and calculated with the equation: Intratumoral necrosis ratio (%)=Σ[Necrotic ratio on each section (%)×section area (mm^2)]×section thickness (mm)/[4/3π r^3] (mm^3).
Statistical analyses were carried out by GraphPad Prism (version 7.02, GraphPad Software Inc, La Jolla, Calif., USA). The Pearson's correlation coefficient was calculated between percentile tumoral necrosis calculated by histopathology and tumor diameter measured from T2WI. Numerical data were presented as mean±standard errors of the mean (SEM). Comparison of percentile tumoral necrosis was performed by unpaired […] t-test; results of ADCs between tumor and liver background were compared by two-way ANOVA. A significant difference was concluded for P<0.05.

macro- and micro-cancers = settings: input of the model; cited from earlier work
implanted tumor models = settings: in vivo; cited from earlier work
rhabdomyosarcomas (R1) = assay: CA4P in rats with liver implantation of micro rhabdomyosarcomas (R1); type: in vivo, rat
Text: To verify whether the above unexpected findings can be supported in other types of solid tumors, we intentionally studied CA4P in a group of rats with liver implantation of rhabdomyosarcomas (R1) ranging from 1 to 5 mm in diameter as monitored by noninvasive longitudinal MRI and verified by postmortem techniques. R1 has been extensively studied on VDA research before but in much larger tumor size.

cirrhotic liver = assay: Tolerability of the procedures and liver damage in cirrhotic rats after CA4P; type: in vivo, rat
Protocol: as §1, §2

[2] = system: micro-HCCs and cirrhotic liver; assay: In vivo MRI (DWI-derived ADCperf/ADCdiff, T2WI, CE-T1WI) of micro-HCCs and surrounding cirrhotic liver after CA4P; design: species or system rat
Protocol: Images were acquired on a clinical 3.0T MRI scanner (MAGNETOM Prisma; Siemens, Erlangen, Germany) and a human wrist coil (Hand/Wrist 16, A 1.5 T Tim coil, Siemens). Twenty axial images were acquired, with a slice thickness of 2.0 mm and a gap of 0.4 mm. T2-weighted (repetition time, 4000 ms; echo time, 70 ms; flip angle, 150°; field of view, 75×56 mm^2; matrix, 256×192) and T1-weighted (repetition time, 626 ms; echo time, 15 ms; flip angle, 160°; field of view, 75×56 mm^2; matrix, 256×192) turbo spin echo (TSE) images (T2WI, T1WI) were performed weekly to monitor tumor growth, while T2WI, T1WI, diffusion-weighted imaging (DWI) and consecutive contrast-enhanced (CE-) T1WIs were acquired to evaluate CA4P treatment. For DWI, a 2-dimensional SE echo-planar imaging (EPI) sequence (repetition time, 3500 ms; echo time, 62 ms; flip angle, 90°; field of view, 136×74 mm2; matrix, 96×52) with 8 b values (0, 50, 100, 150, 400, 600, 800 and 1000 seconds/mm^2) was acquired. For CE-MRI, a bolus of 0.2 mmol/kg Gd-DOTA was injected before a series of CE-T1WIs were acquired.?
as §1
On DWI, tumor area was manually contoured with an operator-defined region of interest (ROI) on all tumor-containing images. ADC map was calculated from DWI to quantify therapeutic responses by the following mono-exponential formula: Si=S0×exp (−bi×ADC), in which Si is the signal intensity (SI) measured on the ith b value image, bi is the corresponding b value, and S0 is a variable estimating the intrinsic SI (for b=0 seconds/mm^2).
For the calculation of different ADC values, tumors were freehand delineated only on the central slices with the largest cross-sectional areas on the original DWIs at the b value of 1000 s/mm^2, in order to avoid partial volume effects. The delineation of each tumor lesion was copied to all images with different b values automatically. The average SI per tumor and per b value was then determined. The difference between ADClow (b=0, 50 and 100 s/mm^2) and ADChigh (b=600, 800 and 1000 s/mm^2) was defined as ADCperf to reflect the tissue microcapillary perfusion, while ADChigh was defined as ADCdiff [Chen et al. (2007) Methods. 43, 12-20].

[3] = system: subcutaneous rhabdomyosarcomas; settings: large tumors (≥14 cm^3) versus small tumors (<1 cm^3); cited from earlier work
[4] = system: rodent sarcoma, squamous cell carcinoma, fibrosarcoma, human renal cell carcinoma, Kaposi's sarcoma and breast carcinoma; settings: intraperitoneal injection; cited from earlier work
[5] = micro-HCC, CA4P 10 mg/kg iv, 12 h
[6] = 12 h after CA4P 10 mg/kg iv versus baseline

SMILES: COc1ccc(/C=C\c2cc(OC)c(OC)c(OC)c2)cc1OP(=O)(O)O [CA4P, combretastatin A-4 phosphate]
- tumoral necrosis, hypovascular Grade I-II well-differentiated micro-HCCs (Tumor 1-5) ([1]; histopathology, CA4P 10 mg/kg iv, 12 h): 82.77-96.45%
- tumoral necrosis, Grade IV undifferentiated Tumor 7 (vascular lakes) [1, 5]: minimal necrosis
- tumoral necrosis, hypervascular Grade III poorly differentiated Tumor 6 [1, 5]: 23.15%
- rate of tumoral necrosis in hepatic microcancers higher than in larger HCCs ([1]; micro-HCCs ≤5 mm versus HCCs >5 mm, CA4P 10 mg/kg iv, 12 h): 36.9% and 36.93%
- correlation of CA4P-induced tumoral necrosis with tumor diameter, micro-HCCs ([1]; tumors with diameters of ≤5 mm): not linearly correlated
- tumour necrosis (α) known to be induced (macro- and micro-cancers): 50-99%
- onset of tumor vascular disruption (implanted tumor models): less than 1 hour
- time to extensive intratumoral necrosis (implanted tumor models): ≤ 12 h
- histology of representative micro R1 tumor (rhabdomyosarcomas (R1); 12 h after CA4P treatment, HE stained microscopy): massive and partial hemorrhagic tumor necrosis
- necrosis in liver-implanted R1 lesions (rhabdomyosarcomas (R1); R1 of 1 to 5 mm in diameter, 10 out of 11 lesions): over 90%
- survival of rats (cirrhotic liver; DENA gavage, anesthesia, MRI with contrast and intravenous CA4P treatment, 19 rats): All rats survived
- necrosis in cirrhotic liver parenchyma (cirrhotic liver; microscopy, 12 h after CA4P 10 mg/kg iv): necrotic foci scattered in the cirrhotic liver
- ADCdiff in micro-HCC tumor ([2]; 12 h after CA4P 10 mg/kg iv): slightly rose
- ADCdiff in surrounding cirrhotic liver ([2]; 12 h after CA4P 10 mg/kg iv): nearly unchanged
- ADCperf (blood perfusion) in micro-HCC tumor [2, 6]: drop of tumor perfusion
- ADCperf (blood perfusion) in surrounding cirrhotic liver [2, 6]: sharply decreased blood perfusion
- duration of continuous liver ischemia ([2]; cirrhotic liver, CA4P 10 mg/kg iv): at least 12 h
- tumoral necrosis on MRI, representative microcancer Tumor 1 ([2]; twelve hours after CA4P treatment, T2WI, ADC, CE-T1WI): massive tumoral necrosis
- CA4P efficacy in large tumors relative to small tumors [3]: 16.6 fold

SMILES: COc1cc2c(c(OC)c1OC)-c1ccc(OP(=O)(O)O)cc1[C@@H](NC(C)=O)CC2 [ZD6126, N-acetylcochinol-O-phosphate]
- necrosis in tumors larger than 1 g [4]: ~90%
- necrosis in tumors of less than 0.3 g [4]: ~25%
